Measured values from patent US20180092908A1, “SMALL MOLECULE OXIDIZERS OF PDI AND THEIR USE” (THE TRUSTEES OF COLUMBIA UNIVERSITY IN THE CITY OF NEW YORK, priority 2015, published 2018).

Key:
[1] = Mouse plasma stability assay; type: in vitro ADME; conditions: compound 1.0 μM
Method: Test compound (1 μM) was incubated at 37° C. for up to 120 minutes in mouse plasma. At 0, 15, 30, 60, and 120 minute intervals an 100 μL aliquot was taken and quenched with 200 μL acetonitrile (ACN) containing internal standard. Following completion of the experimentation, the samples were analyzed by LC-MS/MS. The half-life (t1/2) was calculated using the following equation: t1/2=0.693/k, where, k is the elimination rate constant of test compounds obtained by fitting the data to the equation: C=initial×exp (−k×t). Results were reported as peak area ratios of analyte to internal standard.
The microsome stability assay, plasma stability assay, and plasma protein binding assay were each performed by Alliance Pharma, Inc. (Malvern, Pa.).

[2] = target: T1, human catalytic PDI A1 a domain (PDIa) (Homo sapiens, UniProt P07237); experiment: Isothermal titration calorimetry (ITC) binding to PDIa; conditions: 400 μM LOC14 into 40 μM oxidized PDIa, compared to reduced PDIa
T1 construct: made in house; host or cells: Escherichia coli BL21-Gold (DE3)

cortical neurons = experiment: Tau4R-induced neurodegeneration brain slice assay; type: cell-based; conditions: rat corticostriatal brain slice, tau4R transfection, 4 days
Method: Rat corticostriatal brain slice explants co-transfected with YFP and the tau isoform with 4 tubulin-binding repeats (Tau4R) were treated with LOC14, an analog of LOC14 “BIT fragment” (1,2,Benzisothiazol-3-one), or DMSO only for 4 days. Data are plotted as mean±SEM from one of five representative experiments. *Significant by ANOVA followed by Dunnett's post hoc comparison test at p<0.05.
Next, whether LOC14 could be neuroprotective in additional models of neurodegenerative diseases was explored. […] In this rat corticostriatal brain slice assay, cortical neuron degeneration is induced by biolistic transfection with tau, in this case a tau isoform with 4 tubulin-binding repeats (“tau4R”) which is implicated in frontotemporal dementias and more broadly in Alzheimer's disease.

Solubility = conditions: DMSO, Table 5
PDIa = target: T2, PDIa (Homo sapiens, UniProt P07237); experiment: Size-exclusion buffer dialysis for reversibility of binding (fluorescence); conditions: PDIa 20 μM treated with LOC14 300 μM overnight, 10 kDa filter dialysis
T2 construct: made in house; host or cells: Escherichia coli BL21-Gold (DE3)
Method: Prior to dialysis, fluorescence emission spectra were recorded from 315 nm-550 nm wavelength with excitation at 280 nm on a Tecan Infinite 200 microplate reader. Fluorescence readings were carried out in a 384-well low volume, black bottom plate. Each well contained 40 μl of either LOC14 (300 μM), PDIa (20 μM), or PDIa (20 μM) treated with LOC14 (300 μM) overnight. All samples were dissolved in buffer B (20 mM sodium phosphate buffer pH 7.8). After recording the initial fluorescence spectra, samples were then transferred to Amicon Ultra 10 kDa size exclusion filter spin columns for dialysis. […] This step was repeated three more times with fresh buffer B. 40 μl of the collected samples from the flow-through and the spin-column chamber were transferred to a new 384-well plate and the emission spectra recorded as described above.
To investigate the mode of binding further and to determine whether the binding was reversible or irreversible, the fluorescence of the LOC14-PDIa complex was analyzed before and after buffer dialysis. […] If LOC14 binds irreversibly to the protein, then the same fluorescence spectrum of the LOC14-PDIa complex would be seen before and after dialysis in the dialysis chamber and none in the buffer compartment, assuming the fluorescence of LOC14 was not dramatically altered upon binding. […]

[3] = target: T3, recombinant catalytic a domain of human PDI A1 (PDIa) (Homo sapiens, UniProt P07237); experiment: Insulin aggregation assay (PDIa reductase activity); type: biochemical
T3 construct: made in house; host or cells: Escherichia coli BL21-Gold (DE3)
T3 sequence (P07237 with tags, fused parts or gaps): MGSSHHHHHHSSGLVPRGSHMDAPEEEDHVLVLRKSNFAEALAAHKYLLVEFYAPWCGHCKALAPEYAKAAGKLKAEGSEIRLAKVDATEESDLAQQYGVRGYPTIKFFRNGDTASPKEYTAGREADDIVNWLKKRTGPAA

T2 sequence (P07237 with tags, fused parts or gaps): as above
T1 sequence (P07237 with tags, fused parts or gaps): as above

O=C(C1CC1)N1CCN(Cn2sc3ccccc3c2=O)CC1 [LOC14, 2-((4-(cyclopropanecarbonyl)piperazin-1-yl)methyl)benzo[d]isothiazol-3(2H)-one]
% Remaining after 2-hour incubation [1]: 49.9% | Elimination rate constant (k) [1]: 0.0049 | half-life at 1 μM ([1]; read-out: Half-life (t1/2) (converted)): 2.4 h | binding affinity to oxidized PDIa [2]: loss in binding affinity | neuroprotection in tau-mediated neurodegeneration assay (cortical neurons): strongly and reproducibly neuroprotective | Solubility in DMSO (Solubility): 100 mM in DMSO | binding to PDIa reversible or irreversible (PDIa): reversible | Insulin Assay (either active or inactive) ([3]; Table 5): Active | PDI's enzymatic activity after dilution of pre-formed complex ([3]; compound 750 μM + PDIa 500 μM, diluted 100-fold): complete recovery
